Measured values reported in patent US20250049033A1, “PESTICIDALLY ACTIVE PYRIDAZINONE COMPOUNDS” (SYNGENTA CROP PROTECTION AG, priority 2021, published 2025).

What was measured:
Assay type in all cases: in vivo
Euschistus heros = assay: Activity against Euschistus heros (neotropical brown stink bug), soybean leaves, N2 nymphs; conditions: 120 h, application rate 200 ppm, 5 days after infestation, vs untreated, read-out: effect in at least one of the two categories (mortality or growth inhibition)
Procedure: Example B3: Activity Against Euschistus heros (Neotropical Brown Stink Bug)
Soybean leaves on agar in 24-well microtiter plates were sprayed with aqueous test solutions prepared from 10′000 ppm DMSO stock solutions. After drying the leaves were infested with N2 nymphs. The samples were assessed for mortality and growth inhibition in comparison to untreated samples 5 days after infestation.

[1] = system: Frankliniella occidentalis; assay: Activity against Frankliniella occidentalis (western flower thrips), feeding/contact activity; conditions: foliar, 168 h, application rate 200 ppm, 7 days after infestation, sunflower leaf discs, mixed ages
Procedure: Example B4: Activity Against Frankliniella occidentalis (Western Flower Thrips). Feeding/Contact Activity
Sunflower leaf discs were placed on agar in 24-well microtiter plates and sprayed with aqueous test solutions prepared from […] stock solutions. After drying the leaf discs were infested with a Frankliniella population of mixed ages. The samples were assessed for mortality 7 days after infestation.

Chilo suppressalis = assay: Activity against Chilo suppressalis (striped rice stemborer), artificial diet, L2 larvae; conditions: 144 h, application rate 200 ppm, 6 days after infestation, vs untreated, read-out: control in at least one of the three categories (mortality, anti-feedant effect, or growth inhibition)
Procedure: Example B1: Activity Against Chilo suppressalis (Striped Rice Stemborer)
24-well microtiter plates with artificial diet were treated with aqueous test solutions prepared from 10′000 ppm DMSO stock solutions by pipetting. After drying, the plates were infested with L2 larvae (6-8 per well). The samples were assessed for mortality, anti-feeding effect, and growth inhibition in comparison to untreated samples 6 days after infestation. Control of Chilo suppressalis by a test sample is given when at least one of the categories mortality, anti-feedant effect, and growth inhibition is higher than the untreated sample.

Diabrotica balteata = assay: Activity against Diabrotica balteata (corn root worm), maize sprouts, L2 larvae; conditions: 96 h, application rate 200 ppm, 4 days after infestation, vs untreated, read-out: control in at least one of the two categories (mortality or growth inhibition)
Procedure: Example B2: Activity Against Diabrotica balteata (Corn Root Worm)
Maize sprouts placed onto an agar layer in 24-well microtiter plates were treated with aqueous test solutions prepared from 10′000 ppm DMSO stock solutions by spraying. After drying, the plates were infested with L2 larvae (6 to 10 per well). The samples were assessed for mortality and growth inhibition in comparison to untreated samples 4 days after infestation.

Myzus persicae [2] = assay: Activity against Myzus persicae (green peach aphid), feeding/contact activity; conditions: foliar, 144 h, application rate 200 ppm, 6 days after infestation, sunflower leaf discs, mixed ages
Procedure: Example B5: Activity Against Myzus persicae (Green Peach Aphid). Feeding/Contact Activity
Sunflower leaf discs were placed onto agar in a 24-well microtiter plate and sprayed with aqueous test solutions prepared from 10′000 ppm DMSO stock solutions. After drying, the leaf discs were infested with an aphid population of mixed ages. The samples were assessed for mortality 6 days after infestation.

Myzus persicae [3] = assay: Activity against Myzus persicae (green peach aphid), intrinsic activity; conditions: 120 h, test rate 12 ppm, 5 days after infestation, sucrose solution through Parafilm
Text: Example B6: Activity Against Myzus persicae (Green Peach Aphid). Intrinsic Activity
Test compounds prepared from 10′000 ppm DMSO stock solutions were applied by pipette into 24-well microtiter plates and mixed with sucrose solution. The plates were closed with a stretched Parafilm. A plastic stencil with 24 holes was placed onto the plate and infested pea seedlings were placed directly on the Parafilm. The infested plate was closed with a gel blotting paper and another plastic stencil and then turned upside down. The samples were assessed for mortality 5 days after infestation.

Plutella xylostella = assay: Activity against Plutella xylostella (diamond back moth), artificial diet, eggs; conditions: 192 h, application rate 200 ppm, 8 days after infestation, vs untreated, read-out: control in at least one of the two categories (mortality or growth inhibition)
Procedure: Example B7: Activity Against Plutella xylostella (Diamond Back Moth)
24-well microtiter plates with artificial diet were treated with aqueous test solutions prepared from 10′000 ppm DMSO stock solutions by pipetting. After drying, Plutella eggs were pipetted through a plastic stencil onto a gel blotting paper and the plate was closed with it. The samples were assessed for mortality and growth inhibition in comparison to untreated samples 8 days after infestation. The following compounds gave an effect of at least 80% control in at least one of the two categories (mortality or growth inhibition) at an application rate of 200 ppm: P1, P2, P3, P4, P6, P7, P8, P9, P10, P11, P12, P13, P14, P15, P16, P17, P18, P19, P20, P21, P22, P23, P24, P25, P26, P27.

Spodoptera littoralis = assay: Activity against Spodoptera littoralis (Egyptian cotton leaf worm), cotton leaf discs, L1 larvae; conditions: foliar, 72 h, application rate 200 ppm, 3 days after infestation, vs untreated, read-out: control in at least one of the three categories (mortality, anti-feedant effect, or growth inhibition)
Procedure: Example B8: Activity Against Spodoptera littoralis (Egyptian Cotton Leaf Worm)
Cotton leaf discs were placed onto agar in 24-well microtiter plates and sprayed with aqueous test solutions prepared from 10′000 ppm DMSO stock solutions. After drying the leaf discs were infested with five L1 larvae. The samples were assessed for mortality, anti-feeding effect, and growth inhibition in comparison to untreated samples 3 days after infestation. Control of Spodoptera littoralis by a test sample is given when at least one of the categories mortality, anti-feedant effect, and growth inhibition is higher than the untreated sample.

Tetranychus urticae = assay: Activity against Tetranychus urticae (two-spotted spider mite), feeding/contact activity; conditions: foliar, 192 h
Procedure: Example B9: Activity Against Tetranychus urticae (Two-Spotted Spider Mite). Feeding/Contact Activity
Bean leaf discs on agar in 24-well microtiter plates were sprayed with aqueous test solutions prepared from 10′000 ppm DMSO stock solutions. After drying the leaf discs were infested with a mite population of mixed ages. The samples were assessed for mortality on mixed population (mobile stages) 8 days after infestation.

C[C@H](Nc1nc(=O)[nH]c2c(Cl)cc(C(F)(F)F)cc12)c1ncnn1-c1ccc(=O)n(C)n1 [P5, 8-chloro-4-[[(1S)-1-[2-(1-methyl-6-oxo-pyridazin-3-yl)-1,2,4-triazol-3-yl]ethyl]amino]-6-(trifluoromethyl)-1H-quinazolin-2-one]
≥ 80%: percent effect (mortality or growth inhibition) at 200 ppm (Euschistus heros) | mortality at 200 ppm [1]

C[C@@H](c1nccnc1-c1ccc(=O)n(C)n1)N(C)c1ncnc2c(C(F)(F)F)cc(Cl)cc12 (single isomer, unassigned) [P27]
≥ 80%: percent control (mortality, anti-feedant effect or growth inhibition) at 200 ppm (Chilo suppressalis) | percent control (mortality or growth inhibition) at 200 ppm (Diabrotica balteata) | percent effect (mortality or growth inhibition) at 200 ppm (Euschistus heros) | mortality at 200 ppm (Myzus persicae [2]) | mortality at 12 ppm (Myzus persicae [3]) | percent control (mortality or growth inhibition) at 200 ppm (Plutella xylostella) | percent control (mortality, anti-feedant effect or growth inhibition) at 200 ppm (Spodoptera littoralis) | mortality at 200 ppm (Tetranychus urticae)
